Results published in BindingDB's records for doi:10.1111/cbdd.12863 (Guangzhou Institutes of Biomedicine and Health, Chinese …, 2017).

How the values were obtained:
[1] = molecular target: T1, Discoidin domain-containing receptor 2 (Homo sapiens, UniProt Q16832); test: LanthaScreen Eu Kinase Activity Assay; details: pH 7.5; 25 °C
T1 sequence (Q16832 whole entry): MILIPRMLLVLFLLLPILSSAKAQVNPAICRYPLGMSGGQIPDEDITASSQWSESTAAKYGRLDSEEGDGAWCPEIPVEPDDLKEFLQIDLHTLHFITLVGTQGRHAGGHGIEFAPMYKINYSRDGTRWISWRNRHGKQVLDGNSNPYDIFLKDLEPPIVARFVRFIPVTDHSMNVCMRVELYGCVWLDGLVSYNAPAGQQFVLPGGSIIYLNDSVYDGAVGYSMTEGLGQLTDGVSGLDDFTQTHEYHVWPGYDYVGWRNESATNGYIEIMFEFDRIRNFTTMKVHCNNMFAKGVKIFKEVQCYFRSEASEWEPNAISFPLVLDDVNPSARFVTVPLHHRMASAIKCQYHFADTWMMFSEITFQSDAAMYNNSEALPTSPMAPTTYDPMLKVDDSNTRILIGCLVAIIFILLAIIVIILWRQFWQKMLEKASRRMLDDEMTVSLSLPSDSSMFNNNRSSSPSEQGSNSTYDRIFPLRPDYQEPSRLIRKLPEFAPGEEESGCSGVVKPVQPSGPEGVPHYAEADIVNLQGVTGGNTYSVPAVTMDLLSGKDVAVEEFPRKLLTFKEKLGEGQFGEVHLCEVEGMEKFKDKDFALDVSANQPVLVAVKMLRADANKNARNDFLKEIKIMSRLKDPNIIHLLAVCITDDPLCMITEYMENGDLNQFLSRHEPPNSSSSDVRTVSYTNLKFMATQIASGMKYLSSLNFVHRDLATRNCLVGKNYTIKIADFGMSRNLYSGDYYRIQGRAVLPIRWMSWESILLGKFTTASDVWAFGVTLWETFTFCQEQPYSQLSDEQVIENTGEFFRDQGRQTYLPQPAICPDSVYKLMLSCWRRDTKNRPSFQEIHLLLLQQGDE
Experimental: (§1) The effects of compounds on the kinases DDR1 and DDR2 were assessed by using a LanthaScreen Eu kinase activity assay technology (Invitrogen, Carlsbad, CA, USA). […] Reaction buffer for the kinase reaction consists of 50 mm HEPES pH 7.5, 0.01% BRIJ-35, 10 mm MgCl2, and 1 mm EGTA. The concentration of fluorescein-polyGAT substrate (Invitrogen) in the assay was […] reactions were initiated with the addition of […] in the presence of serial dilutions of compounds. The reactions were allowed to proceed for 1 hour at room temperature before a 10 μL preparation of EDTA (20 mm) and Eu-labeled antibody (4 nm) in TR-FRET dilution buffer was added. The final concentration of antibody in the assay well was 2 nm, and the final concentration of EDTA was 10 mm.

[2] = molecular target: Epithelial discoidin domain-containing receptor 1 (Homo sapiens, UniProt Q08345); test: LanthaScreen Eu Kinase Activity Assay; details: pH 7.5; 25 °C
Sequence of Epithelial discoidin domain-containing receptor 1 (Q08345 whole entry, the tested form may be a part): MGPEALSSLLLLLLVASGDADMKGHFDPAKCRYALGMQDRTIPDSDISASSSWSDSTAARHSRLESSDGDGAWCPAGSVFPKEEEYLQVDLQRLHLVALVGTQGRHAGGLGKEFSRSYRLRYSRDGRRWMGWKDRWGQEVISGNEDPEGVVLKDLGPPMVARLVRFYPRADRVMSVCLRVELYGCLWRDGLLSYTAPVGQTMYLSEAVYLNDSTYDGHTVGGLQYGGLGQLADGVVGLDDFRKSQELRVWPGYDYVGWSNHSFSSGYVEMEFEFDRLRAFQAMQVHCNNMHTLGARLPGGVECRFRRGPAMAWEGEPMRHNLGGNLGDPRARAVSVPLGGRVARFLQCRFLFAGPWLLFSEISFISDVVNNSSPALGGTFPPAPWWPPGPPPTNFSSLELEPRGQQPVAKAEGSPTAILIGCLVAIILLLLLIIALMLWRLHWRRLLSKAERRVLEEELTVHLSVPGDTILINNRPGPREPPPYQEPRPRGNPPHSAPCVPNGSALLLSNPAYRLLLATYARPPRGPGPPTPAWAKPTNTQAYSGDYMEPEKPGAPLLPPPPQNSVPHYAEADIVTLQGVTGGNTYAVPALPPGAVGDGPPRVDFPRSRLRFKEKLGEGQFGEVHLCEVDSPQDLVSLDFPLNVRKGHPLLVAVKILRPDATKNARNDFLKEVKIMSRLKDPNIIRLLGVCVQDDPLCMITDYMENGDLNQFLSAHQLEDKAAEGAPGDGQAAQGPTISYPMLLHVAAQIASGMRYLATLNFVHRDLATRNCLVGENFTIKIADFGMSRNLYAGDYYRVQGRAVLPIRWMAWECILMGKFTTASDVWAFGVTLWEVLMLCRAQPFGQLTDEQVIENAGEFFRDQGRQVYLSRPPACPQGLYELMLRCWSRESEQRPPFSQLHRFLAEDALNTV
Experimental: as §1

Row | SMILES | IC50 [1] | IC50 [2]
1 | Cc1nc(Nc2ncc(C(=O)Nc3c(C)cccc3Cl)s2)cc(N2CCN(C(=O)OCc3ccccc3)CC2)n1 [Benzyl 4-(6-((5-((2-chloro-6-methylphenyl)carbamoyl)thiazol-2-yl)amino)-2-methylpyrimidin-4-yl)-piperazine-1-carboxylate (3h)] | 133 nM | 22.6 nM
2 | C=CCOC(=O)N1CCC(c2cc(Nc3ncc(C(=O)Nc4c(C)cccc4Cl)s3)nc(C)n2)C1 (stereo not drawn) [Allyl 3-(6-((5-((2-chloro-6-methylphenyl)carbamoyl)thiazol-2-yl)amino)-2-methylpyrimidin-4-yl)pyrrolidine-1-carboxylate (5d)] | 17 nM | 13.3 nM
3 | Cc1nc(Nc2ncc(C(=O)Nc3c(C)cccc3Cl)s2)cc(C2CCN(C(=O)Oc3ccccc3)C2)n1 (stereo not drawn) [Phenyl 3-(6-((5-((2-chloro-6-methylphenyl)carbamoyl)thiazol-2-yl)amino)-2-methylpyrimidin-4-yl)pyrrolidine-1-carboxylate (5g)] | 59.9 nM | 7.51 nM
4 | Cc1nc(Nc2ncc(C(=O)Nc3c(C)cccc3Cl)s2)cc(C2CCN(C(=O)OCC(C)C)C2)n1 (stereo not drawn) [Isobutyl 3-(6-((5-((2-chloro-6-methylphenyl)carbamoyl)thiazol-2-yl)amino)-2-methylpyrimidin-4-yl)pyrrolidine-1-carboxylate (5f)] | 85.4 nM | 12.1 nM
5 | Cc1nc(Nc2ncc(C(=O)Nc3c(C)cccc3Cl)s2)cc(C2CCN(C(=O)OCc3ccccc3)C2)n1 (stereo not drawn) [Benzyl 3-(6-((5-((2-chloro-6-methylphenyl)carbamoyl)thiazol-2-yl)amino)-2-methylpyrimidin-4-yl)pyrrolidine-1-carboxylate (5h)] | 285 nM | 22 nM
6 | Cc1nc(Nc2ncc(C(=O)Nc3c(C)cccc3Cl)s2)cc(C2CCN(C(=O)OC(C)C)C2)n1 (stereo not drawn) [Isopropyl 3-(6-((5-((2-chloro-6-methylphenyl)carbamoyl)thiazol-2-yl)amino)-2-methylpyrimidin-4-yl)pyrrolidine-1-carboxylate (5c)] | 72.1 nM | 9.14 nM
7 | Cc1nc(Nc2ncc(C(=O)Nc3c(C)cccc3Cl)s2)cc(N2CCN(C(=O)Oc3ccccc3)CC2)n1 [Phenyl 4-(6-((5-((2-chloro-6-methylphenyl)carbamoyl)thiazol-2-yl)amino)-2-methylpyrimidin-4-yl)-piperazine-1-carboxylate (3g)] | 21.3 nM | 7.14 nM
8 | C=CC(=O)N1CCC(Nc2cc(Nc3ncc(C(=O)Nc4c(C)cccc4Cl)s3)nc(C)n2)C1 (stereo not drawn) [2-((6-((1-Acryloylpyrrolidin-3-yl)amino)-2-methylpyrimidin-4-yl)amino)-N-(2-chloro-6-methylphenyl)thiazole-5-carboxamide (5k)] | 34.4 nM | 7.31 nM
9 | CCC(=O)N1CCC(Nc2cc(Nc3ncc(C(=O)Nc4c(C)cccc4Cl)s3)nc(C)n2)C1 (stereo not drawn) [N-(2-chloro-6-methylphenyl)-2-((2-methyl-6-((1-propionylpyrrolidin-3-yl)amino)pyrimidin-4-yl)amino)thiazole-5-carboxamide (5l)] | 23.9 nM | 17.9 nM
10 | CCOC(=O)N1CCC(c2cc(Nc3ncc(C(=O)Nc4c(C)cccc4Cl)s3)nc(C)n2)C1 (stereo not drawn) [Ethyl 3-(6-((5-((2-chloro-6-methylphenyl)carbamoyl)thiazol-2-yl)amino)-2-methylpyrimidin-4-yl)pyrrolidine-1-carboxylate (5b)] | 22.4 nM | 9.6 nM
11 | Cc1nc(Nc2ncc(C(=O)Nc3c(C)cccc3Cl)s2)cc(N2CCN(C(=O)OCC(C)C)CC2)n1 [Isobutyl 4-(6-((5-((2-chloro-6-methylphenyl)carbamoyl)thiazol-2-yl)amino)-2-methylpyrimidin-4-yl)-piperazine-1-carboxylate (3f)] | 34.6 nM | 6.75 nM
12 | C=CCOC(=O)N1CCN(c2cc(Nc3ncc(C(=O)Nc4c(C)cccc4Cl)s3)nc(C)n2)CC1 [Allyl 4-(6-((5-((2-chloro-6-methylphenyl)carbamoyl)thiazol-2-yl)amino)-2-methylpyrimidin-4-yl)-piperazine-1-carboxylate (3d)] | 21.6 nM | 6.69 nM
13 | CCS(=O)(=O)N1CCC(Nc2cc(Nc3ncc(C(=O)Nc4c(C)cccc4Cl)s3)nc(C)n2)C1 (stereo not drawn) [N-(2-chloro-6-methylphenyl)-2-((6-((1-(ethylsulfonyl)pyrrolidin-3-yl)amino)-2-methylpyrimidin-4-yl)amino)thiazole-5-carboxamide (5j)] | 156 nM | 48.5 nM
14 | CCCCOC(=O)N1CCC(c2cc(Nc3ncc(C(=O)Nc4c(C)cccc4Cl)s3)nc(C)n2)C1 (stereo not drawn) [Butyl 3-(6-((5-((2-chloro-6-methylphenyl)carbamoyl)thiazol-2-yl)amino)-2-methylpyrimidin-4-yl)pyrrolidine-1-carboxylate (5e)] | 123 nM | 15.3 nM
15 | COC(=O)N1CCC(c2cc(Nc3ncc(C(=O)Nc4c(C)cccc4Cl)s3)nc(C)n2)C1 (stereo not drawn) [Methyl 3-(6-((5-((2-chloro-6-methylphenyl)carbamoyl)thiazol-2-yl)amino)-2-methylpyrimidin-4-yl)pyrrolidine-1-carboxylate (5a)] | 32.9 nM | 5.23 nM

Now those with a lower IC50 [1], led by results:

Row | IC50 [1] | IC50 [2] | SMILES
16 | 14 nM | 5.99 nM | Cc1nc(Nc2ncc(C(=O)Nc3c(C)cccc3Cl)s2)cc(N2CCN(C(=O)OC(C)C)CC2)n1 [Isopropyl 4-(6-((5-((2-chloro-6-methylphenyl)carbamoyl)thiazol-2-yl)amino)-2-methylpyrimidin-4-yl)-piperazine-1-carboxylate (3c)]
17 | 11.4 nM | 3.15 nM | CCOC(=O)N1CCN(c2cc(Nc3ncc(C(=O)Nc4c(C)cccc4Cl)s3)nc(C)n2)CC1 [Ethyl 4-(6-((5-((2-chloro-6-methylphenyl)carbamoyl)thiazol-2-yl)amino)-2-methylpyrimidin-4-yl)-piperazine-1-carboxylate (3b)]
18 | 9 nM | 4.21 nM | Cc1nc(Nc2ncc(C(=O)Nc3c(C)cccc3Cl)s2)cc(N2CCN(C(=O)OCCCl)CC2)n1 [2-Chloroethyl 4-(6-((5-((2-chloro-6-methylphenyl)carbamoyl)thiazol-2-yl)amino)-2-methylpyrimidin-4-yl)-piperazine-1-carboxylate (3i)]
19 | 8.34 nM | 4.25 nM | C/C=C/C(=O)N1CCN(c2cc(Nc3ncc(C(=O)Nc4c(C)cccc4Cl)s3)nc(C)n2)CC1 [(E)-2-((6-(4-(but-2-enoyl)piperazin-1-yl)-2-methylpyrimidin-4-yl)amino)-N-(2-chloro-6-methylphenyl)thiazole-5-carboxamide (3m)]
20 | 7.89 nM | 2.56 nM | Cc1nc(Nc2ncc(C(=O)Nc3c(C)cccc3Cl)s2)cc(N2CCN(C(=O)OCCN(C)C)CC2)n1 [2-(Dimethylamino)ethyl 4-(6-((5-((2-chloro-6-methylphenyl)carbamoyl)thiazol-2-yl)amino)-2-methylpyrimidin-4-yl)-piperazine-1-carboxylate (3k)]
21 | 7.04 nM | 2.26 nM | Cc1nc(Nc2ncc(C(=O)Nc3c(C)cccc3Cl)s2)cc(N2CCN(C(=O)OCCN3CCOCC3)CC2)n1 [2-Morpholinoethyl 4-(6-((5-((2-chloro-6-methylphenyl)carbamoyl)thiazol-2-yl)amino)-2-methylpyrimidin-4-yl)-piperazine-1-carboxylate (3j)]
22 | 6.76 nM | 4.32 nM | COC(=O)N1CCN(c2cc(Nc3ncc(C(=O)Nc4c(C)cccc4Cl)s3)nc(C)n2)CC1 [Methyl 4-(6-((5-((2-chloro-6-methylphenyl)carbamoyl)thiazol-2-yl)amino)-2-methylpyrimidin-4-yl)-piperazine-1-carboxylate (3a)]
23 | 6.29 nM | 4.54 nM | C=CC(=O)N1CCN(c2cc(Nc3ncc(C(=O)Nc4c(C)cccc4Cl)s3)nc(C)n2)CC1 [2-((6-(4-Acryloylpiperazin-1-yl)-2-methylpyrimidin-4-yl)amino)-N-(2-chloro-6-methylphenyl)-thiazole-5-carboxamide (3l)]
24 | 6.16 nM | 3.2 nM | CCCCOC(=O)N1CCN(c2cc(Nc3ncc(C(=O)Nc4c(C)cccc4Cl)s3)nc(C)n2)CC1 [Butyl 4-(6-((5-((2-chloro-6-methylphenyl)carbamoyl)thiazol-2-yl)amino)-2-methylpyrimidin-4-yl)-piperazine-1-carboxylate (3e)]
